Laboratory results reported in patent US20110200626A1, “IQGAP3 EPITOPE PEPTIDES AND VACCINES CONTAINING THE SAME” (Oncotherapy Science, Inc., priority 2008, published 2011).
“Also recorded” adds a separate entry of the source. Ends that are not written are not given here.

Columns and labels:
peptide-pulsed T2 cells [1] = test: IFN-gamma ELISPOT assay on CTLs induced with HLA-A*0201 restricted peptides; format: cell-based, human; details: against peptide-pulsed target cells compared with control without peptide
peptide-pulsed T2 cells [2] = test: IFN-gamma ELISA assay on CTL lines (HLA-A*0201); format: cell-based, human; details: target cells pulsed with corresponding peptide vs without peptide
[3] = test system: COS7 cells transfected with IQGAP3 and HLA-A*0201; test: Specific CTL activity against target cells exogenously expressing IQGAP3 and HLA-A*0201; format: cell-based; details: for specific CTL activity of CTL clone against controls: COS7 cells expressing either HLA-A*0201 or IQGAP3 alone; for specific CTL activity of CTL clone: COS7 cells transfected with both IQGAP3 and HLA-A*0201
From the text: (§1) The cDNA encoding an open reading frame of target genes or HLA-A*0201 was amplified by PCR. The PCR-amplified products were cloned into pCAGGS vector. The plasmids were transfected into COST, which is the target genes and HLA-A*0201-negative cell line, using lipofectamine 2000 (Invitrogen) according to the manufacturer's recommended procedures. After 2 days from transfection, the transfected cells were harvested with versene (Invitrogen) and used as the target cells (5×10^4 cells/well) for CTL activity assay

[4] = test system: peptide-pulsed A24LCL cells; test: IFN-gamma ELISPOT assay on CTLs induced with HLA-A*2402 restricted peptides; format: cell-based, human; details: against peptide-pulsed target cells compared with control without peptide, listed as IQGAP3-A24-9-779
[5] = test system: peptide-pulsed A24LCL cells; test: IFN-gamma ELISA assay on CTL lines (HLA-A*2402); format: cell-based, human; details: target cells pulsed with corresponding peptide vs without peptide
[6] = test system: COS7 cells transfected with IQGAP3 and HLA-A*2402; test: Specific CTL activity against target cells exogenously expressing IQGAP3 and HLA-A*2402; format: cell-based
From the text: as §1, with “gene” for “genes”, “HLA-A24” for “HLA-A*0201”, “product was” for “products were”, “COS7,” for “COST,”, “HLA-A24-null” for “HLA-A*0201-negative”, “assay.” for “assay”

peptide-pulsed T2 cells [7] = test: IFN-gamma ELISA assay on CTL clones established by limiting dilution (HLA-A*0201); format: cell-based, human; details: peptide-pulsed target cells
Protocol: The dilutions were made to have 0.3, 1, and 3 CTLs/well in 96 round-bottomed micro titer plate (Nalge Nunc International). CTLs were cultured with 1×10^4 cells/well of 2 kinds of human B-lymphoblastoid cell lines, 30 ng/ml of anti-CD3 antibody, and 125 U/ml of IL-2 in a total of 150 and/well of AIM-VMedium containing 5% AS. 50 mcl/well of IL-2 were added to the medium 10 days later so to reach a final concentration of 125 U/ml IL-2. CTL activity was tested on the 14th day, and CTL clones were expanded using the same method as described above (Uchida N et al., Clin Cancer Res 2004 Dec. 15, 10(24): 8577-86; Suda T et al., Cancer Sci 2006 May, 97(5): 411-9; Watanabe T et al., Cancer Sci 2005 August, 96(8): 498-506).
Specifically, peptide-pulsed A24 or T2 LCL (1×10^4/well) was prepared as stimulator cells. Cultured cells in 48 wells were used as responder cells. IFN-gamma ELISPOT assay and IFN-gamma ELISA assay were performed under manufacture procedure.

## VLNDYLEET [SEQ ID NO: 99]
peptide-pulsed T2 cells [1]; listed as IQGAP3-A02-9-1234
  IFN-gamma production of peptide-induced CTLs (ELISPOT): potent IFN-gamma production ability
peptide-pulsed T2 cells [2]
  IFN-gamma production of established CTL lines (ELISA): potent IFN-gamma production
[3]
  specific CTL activity of CTL clone against controls: no significant specific CTL activity
[3]; listed as IQGAP3-A02-9-1234
  specific CTL activity of CTL clone: potent CTL activity; also recorded: specific CTL activity

## IYLEWLQYF [SEQ ID NO: 7]
[4]
  IFN-gamma production of peptide-induced CTLs (ELISPOT): potent IFN-gamma production ability
[5]
  IFN-gamma production of established CTL lines (ELISA): potent IFN-gamma production
[6]; COS7 cells expressing either HLA-A*2402 or IQGAP3 alone
  specific CTL activity of CTL line against controls: no significant specific CTL activity
[6]; COS7 cells transfected with both IQGAP3 and HLA-A*2402, listed as IQGAP3-A24-9-779
  specific CTL activity of CTL line: potent CTL activity; also recorded: specific CTL activity

## GLLVkNRITL (GLLVKNRITL; not fully specified (residue 5); printed as GLLVkNRITL) [SEQ ID NO: 130]
peptide-pulsed T2 cells [1]; listed as IQGAP3-A02-10-903
  IFN-gamma production of peptide-induced CTLs (ELISPOT): potent IFN-gamma production ability
peptide-pulsed T2 cells [2]
  IFN-gamma production of established CTL lines (ELISA): potent IFN-gamma production
peptide-pulsed T2 cells [7]; listed as IQGAP3-A02-10-903
  IFN-gamma production of CTL clones (ELISA): potent IFN-gamma production

## GLDDVSLPV [SEQ ID NO: 85]
peptide-pulsed T2 cells [1]; listed as IQGAP3-A02-9-553
  IFN-gamma production of peptide-induced CTLs (ELISPOT): potent IFN-gamma production ability
peptide-pulsed T2 cells [2]
  IFN-gamma production of established CTL lines (ELISA): potent IFN-gamma production
peptide-pulsed T2 cells [7]; listed as IQGAP3-A02-9-553
  IFN-gamma production of CTL clones (ELISA): potent IFN-gamma production
[3]
  specific CTL activity of CTL clone against controls: no significant specific CTL activity
[3]; listed as IQGAP3-A02-9-553
  specific CTL activity of CTL clone: potent CTL activity; also recorded: specific CTL activity

## LLYYrFLNPA (LLYYRFLNPA; not fully specified (residue 5); printed as LLYYrFLNPA) [SEQ ID NO: 121]
peptide-pulsed T2 cells [1]; listed as IQGAP3-A02-10-1174
  IFN-gamma production of peptide-induced CTLs (ELISPOT): potent IFN-gamma production ability
peptide-pulsed T2 cells [2]
  IFN-gamma production of established CTL lines (ELISA): potent IFN-gamma production
peptide-pulsed T2 cells [7]; listed as IQGAP3-A02-10-1174
  IFN-gamma production of CTL clones (ELISA): potent IFN-gamma production
